“And” between values parts separate entries of the source, which are not always exact repeats. Equal values may be shown once.
Tests used:
S. pneumoniae ATCC 49619 [1] = experiment: IHMA QC MIC; type: cell-based
Excerpt: (§1) Supplement jm2c01905_si_004.xlsx, sheet "QC" | column: MIC [µg/mL]

H. influenzae ATCC 49247 = experiment: IHMA QC MIC; type: cell-based
Excerpt: as §1

H. influenzae ATCC 49766 = experiment: IHMA QC MIC; type: cell-based
Excerpt: as §1

E. faecalis ATCC 29212 [2] = experiment: IHMA QC MIC; type: cell-based
Excerpt: as §1

[3] = tested on: N. gonorrhoeae ATCC 49226; experiment: IHMA QC MIC; type: cell-based; settings: QC strain N. gonorrhoeae ATCC 49226, test date 2021-11-18
Excerpt: as §1

[4] = tested on: Haemophilus influenzae (n = 14); experiment: MIC broth microdilution at IHMA Europe; type: cell-based, H. influenzae
P. aeruginosa ATCC 27853 = experiment: IHMA QC MIC; type: cell-based
E. faecalis ATCC 29212 [5] = tested on: E. faecalis ATCC 29212; design: method as in earlier work; settings: QC range for E. faecalis ATCC 29212, ref CLSI; cited from earlier work
E. coli ATCC 25922 = experiment: IHMA QC MIC; type: cell-based
E. faecium (n = 13) = experiment: MIC broth microdilution at IHMA Europe; type: cell-based
[6] = tested on: N. gonorrhoeae ATCC 49226; design: method as in earlier work; settings: QC range for N. gonorrhoeae ATCC 49226, ref CLSI; cited from earlier work
[7] = tested on: Neisseria gonorrhoeae (n = 12); experiment: MIC broth microdilution at IHMA Europe; type: cell-based
S. pneumoniae (n = 12) = experiment: MIC broth microdilution at IHMA Europe; type: cell-based
S. pneumoniae ATCC 49619 [8] = tested on: S. pneumoniae ATCC 49619; design: method as in earlier work; settings: QC range for S. pneumoniae ATCC 49619, ref CLSI; cited from earlier work
[9] = tested on: S. aureus (VISA) ATCC 700699; experiment: MIC broth microdilution (CLSI); type: cell-based; settings: Staphylococcus aureus; read-out: MIC
Outline: (§2)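 Using standard CLSI methodology, triplicate wells seeded at 5 × 10^4 cells in 100 μL cation-adjusted MHBII are incubated 18 h at 37 °C. The MIC corresponds to the drug concentration inhibiting culture growth as judged by OD600.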

[10] = tested on: S. aureus (MRSA) ATCC 43300; experiment: MIC broth microdilution (CLSI); type: cell-based; settings: Staphylococcus aureus
Outline: as §2

A. baumannii DNA gyrase = A. baumannii DNA gyrase (Acinetobacter baumannii, UniProt A0ABX6CA01); experiment: gel-based supercoiling assay; type: biochemical
Chain of A. baumannii DNA gyrase (A0ABX6CA01 1-822): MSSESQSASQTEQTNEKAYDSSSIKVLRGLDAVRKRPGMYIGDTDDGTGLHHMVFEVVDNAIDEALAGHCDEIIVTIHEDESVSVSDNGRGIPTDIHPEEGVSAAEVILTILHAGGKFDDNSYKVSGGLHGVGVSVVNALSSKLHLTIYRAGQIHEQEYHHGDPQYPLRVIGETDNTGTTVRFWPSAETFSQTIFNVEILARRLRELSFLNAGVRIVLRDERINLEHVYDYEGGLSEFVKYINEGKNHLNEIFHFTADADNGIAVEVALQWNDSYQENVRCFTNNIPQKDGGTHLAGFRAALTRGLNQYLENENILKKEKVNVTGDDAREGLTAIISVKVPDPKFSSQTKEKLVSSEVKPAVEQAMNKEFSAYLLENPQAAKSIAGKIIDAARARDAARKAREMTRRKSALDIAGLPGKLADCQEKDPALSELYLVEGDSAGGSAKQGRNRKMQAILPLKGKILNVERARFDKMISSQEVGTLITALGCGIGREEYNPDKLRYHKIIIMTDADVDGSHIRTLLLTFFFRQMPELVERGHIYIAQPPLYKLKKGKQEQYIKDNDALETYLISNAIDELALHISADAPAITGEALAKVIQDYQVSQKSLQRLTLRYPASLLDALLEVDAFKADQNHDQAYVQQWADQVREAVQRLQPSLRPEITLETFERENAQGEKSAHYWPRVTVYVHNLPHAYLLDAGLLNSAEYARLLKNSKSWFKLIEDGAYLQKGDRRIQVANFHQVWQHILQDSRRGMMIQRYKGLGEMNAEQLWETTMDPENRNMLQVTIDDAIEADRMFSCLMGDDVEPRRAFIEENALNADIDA
Chain of A. baumannii DNA gyrase (A0ABX6CII0 1-904 partner): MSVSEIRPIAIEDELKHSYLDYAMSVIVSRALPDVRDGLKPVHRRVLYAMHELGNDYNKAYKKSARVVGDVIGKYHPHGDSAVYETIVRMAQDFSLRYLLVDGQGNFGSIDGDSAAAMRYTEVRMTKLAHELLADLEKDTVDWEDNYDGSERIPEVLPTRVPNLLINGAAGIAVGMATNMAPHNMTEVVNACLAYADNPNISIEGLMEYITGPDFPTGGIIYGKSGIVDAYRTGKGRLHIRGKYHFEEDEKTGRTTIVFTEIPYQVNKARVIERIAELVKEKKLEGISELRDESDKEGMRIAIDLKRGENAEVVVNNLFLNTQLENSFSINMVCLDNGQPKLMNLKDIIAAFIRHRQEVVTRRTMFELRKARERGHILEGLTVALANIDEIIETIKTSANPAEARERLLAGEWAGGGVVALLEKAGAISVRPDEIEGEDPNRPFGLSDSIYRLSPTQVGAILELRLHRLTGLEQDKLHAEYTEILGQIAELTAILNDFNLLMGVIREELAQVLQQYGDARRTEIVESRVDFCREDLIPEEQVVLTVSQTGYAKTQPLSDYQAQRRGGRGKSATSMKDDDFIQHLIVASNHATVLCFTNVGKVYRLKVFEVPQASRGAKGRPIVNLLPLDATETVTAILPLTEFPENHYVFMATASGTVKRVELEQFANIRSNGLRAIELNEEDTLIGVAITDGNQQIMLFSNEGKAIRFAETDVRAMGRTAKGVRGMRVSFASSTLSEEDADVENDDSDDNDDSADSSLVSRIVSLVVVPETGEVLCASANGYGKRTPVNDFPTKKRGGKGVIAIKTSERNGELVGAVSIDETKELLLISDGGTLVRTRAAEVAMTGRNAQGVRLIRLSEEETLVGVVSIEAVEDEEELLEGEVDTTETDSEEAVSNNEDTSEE
Procedure: In all experiments, the activity of the
enzymes was determined prior to the testing of the compound and 1 unit (U) was defined as the
amount of enzyme required to just fully supercoil or decatenate the substrate. This amount of
enzyme was initially used in determination of control inhibitor activity. These experiments were
performed in duplicate. […] The final DMSO
concentration was 1% for all assays. All measurements were performed in quadruplicates. The
condition for each reaction were as follows:
− S. aureus gyrase supercoiling assay
1 U of S. aureus gyrase was incubated with 0.5 µg of relaxed pBR322 DNA in a 30 µL reaction at
magnesium acetate, 10 mM DTT, 2 mM ATP, 500 mM potassium glutamate and 0.05 mg/mL
− S. aureus topo IV decatenation assay
1 U of S. aureus topo IV was incubated with 20 µg kDNA in a 30 µL reaction at 37 °C for 30
mM ATP, 350 mM potassium glutamate and 0.05 mg/mL albumin.
− A. baumannii gyrase supercoiling assay
1 U of A. baumannii gyrase was incubated with 0.5 µg of relaxed pBR322 DNA in a 30 µL reaction
blue), before being loaded on a 1.0% TAE gel run at 80V for 2 hours. Bands were visualised by
ethidium bromide staining for 20 minutes and destaining for 20 minutes. Gels were scanned using
documentation equipment (GeneGenius, Syngene, Cambridge, UK) and % inhibition levels were
measured by determining the relative fluorescence of the supercoiled band using gel scanning
software. […]

With penicillin the MIC (S. pneumoniae ATCC 49619 [1]; QC strain S. pneumoniae ATCC 49619, test date 2021-11-11) was 0.25 µg/mL, the MIC (S. pneumoniae ATCC 49619 [1]; QC strain S. pneumoniae ATCC 49619, test date 2021-11-26) was 0.25 µg/mL and the MIC (H. influenzae ATCC 49247; QC strain H. influenzae ATCC 49247, test date 2021-11-11) was 4 µg/mL and 8 µg/mL. It also gave an MIC (H. influenzae ATCC 49247; QC strain H. influenzae ATCC 49247, test date 2021-11-26) of 4 µg/mL, an MIC (H. influenzae ATCC 49766; QC strain H. influenzae ATCC 49766, test date 2021-11-11) of 0.25 µg/mL and an MIC (H. influenzae ATCC 49766; QC strain H. influenzae ATCC 49766, test date 2021-11-26) of 0.25 µg/mL. The MIC (E. faecalis ATCC 29212 [2]; QC strain E. faecalis ATCC 29212, test date 2021-11-11) was 2 µg/mL, the MIC (E. faecalis ATCC 29212 [2]; QC strain E. faecalis ATCC 29212, test date 2021-11-26) was 2 µg/mL and the MIC [3] was 0.25 µg/mL. It also gave an MIC ([4]; H. influenzae IHMA N° 1227715) of 32 µg/mL, an MIC ([4]; H. influenzae IHMA N° 1241620) of 16 µg/mL and an MIC ([4]; H. influenzae IHMA N° 1244149) of 32 µg/mL. The MIC ([4]; H. influenzae IHMA N° 1249803) was 4 µg/mL, the MIC ([4]; H. influenzae IHMA N° 1254355) was 4 µg/mL and the MIC ([4]; H. influenzae IHMA N° 1258580) was 16 µg/mL. For the same compound, the MIC ([4]; H. influenzae IHMA N° 1262734) was 16 µg/mL, the MIC ([4]; H. influenzae IHMA N° 1272723) was 16 µg/mL and the MIC ([4]; H. influenzae IHMA N° 1286846) was 16 µg/mL. The MIC ([4]; H. influenzae IHMA N° 1337530) was 32 µg/mL, the MIC ([4]; H. influenzae IHMA N° 1440085) was 16 µg/mL and the MIC ([4]; H. influenzae IHMA N° 1479509) was 16 µg/mL. For the same compound, the MIC ([4]; H. influenzae IHMA N° 1952952) was 8 µg/mL, the MIC ([4]; H. influenzae IHMA N° 2047461) was >32 µg/mL and the “Cumulative % at MIC” value ([4]; MIC […] µg/mL) was 71.4%. For the same compound, the “No. of isolates at MIC” value ([4]; MIC […] µg/mL) was 7, the “Cumulative % at MIC” value ([4]; MIC 32 µg/mL) was 92.9% and the “No. of isolates at MIC” value ([4]; MIC 32 µg/mL) was 3. The “Cumulative % at MIC” value ([4]; MIC >32 µg/mL) was 100.0%, the “No. of isolates at MIC” value ([4]; MIC >32 µg/mL) was 1 and the MIC (P. aeruginosa ATCC 27853; QC strain P. aeruginosa ATCC 27853, test date 2021-11-11) was >32 µg/mL and 32 µg/mL. The MIC (P. aeruginosa ATCC 27853; QC strain P. aeruginosa ATCC 27853, test date 2021-11-26) was >32 µg/mL, the “MIC, CLSI Range” value (E. faecalis ATCC 29212 [5]) was 1 to 4 µg/mL and the MIC (E. coli ATCC 25922; QC strain E. coli ATCC 25922, test date 2021-11-11) was 32 µg/mL and 16 µg/mL. For the same compound, the MIC (E. coli ATCC 25922; QC strain E. coli ATCC 25922, test date 2021-11-26) was 32 µg/mL, the MIC (E. faecium (n = 13); E. faecium IHMA N° 1764866) was >32 µg/mL and the MIC (E. faecium (n = 13); E. faecium IHMA N° 1765436) was >32 µg/mL. For the same compound, the MIC (E. faecium (n = 13); E. faecium IHMA N° 1765746) was >32 µg/mL, the MIC (E. faecium (n = 13); E. faecium IHMA N° 1893573) was >32 µg/mL and the MIC (E. faecium (n = 13); E. faecium IHMA N° 1893846) was >32 µg/mL. The MIC (E. faecium (n = 13); E. faecium IHMA N° 1893942) was >32 µg/mL, the MIC (E. faecium (n = 13); E. faecium IHMA N° 1894055) was >32 µg/mL and the MIC (E. faecium (n = 13); E. faecium IHMA N° 1897027) was >32 µg/mL. The MIC (E. faecium (n = 13); E. faecium IHMA N° 1897101) was >32 µg/mL, the MIC (E. faecium (n = 13); E. faecium IHMA N° 1904592) was >32 µg/mL and the MIC (E. faecium (n = 13); E. faecium IHMA N° 2075051) was >32 µg/mL. For the same compound, the MIC (E. faecium (n = 13); E. faecium IHMA N° 2077718) was >32 µg/mL, the MIC (E. faecium (n = 13); E. faecium IHMA N° 2083787) was >32 µg/mL and the “Cumulative % at MIC” value (E. faecium (n = 13); MIC >32 µg/mL) was 100.0%. For the same compound, the “No. of isolates at MIC” value (E. faecium (n = 13); MIC >32 µg/mL) was 13, the “MIC, CLSI Range” value [6] was 0,25 - 1 µg/mL and the “Cumulative % at MIC” value ([7]; MIC 0.5 µg/mL) was 33.3%. For the same compound, the “No. of isolates at MIC” value ([7]; MIC 0.5 µg/mL) was 2, the “Cumulative % at MIC” value ([7]; MIC 1 µg/mL) was 50.0% and the “No. of isolates at MIC” value ([7]; MIC 1 µg/mL) was 2. For the same compound, the “Cumulative % at MIC” value ([7]; MIC 2 µg/mL) was 75.0%, the “No. of isolates at MIC” value ([7]; MIC 2 µg/mL) was 3 and the “Cumulative % at MIC” value ([7]; MIC >16 µg/mL) was 100.0%. For the same compound, the “No. of isolates at MIC” value ([7]; MIC >16 µg/mL) was 2, the “Cumulative % at MIC” value ([7]; MIC […]) was 16.7% and the “No. of isolates at MIC” value ([7]; MIC […]) was 2. The “Cumulative % at MIC” value ([7]; MIC […] µg/mL) was 83.3%, the “No. of isolates at MIC” value ([7]; MIC […] µg/mL) was 1 and the MIC ([7]; isolate IHMA 1123853) was 4 µg/mL. For the same compound, the MIC ([7]; isolate IHMA 1130935) was 0.25 µg/mL, the MIC ([7]; isolate IHMA 1130989) was 0.25 µg/mL and the MIC ([7]; isolate IHMA 1130991) was 2 µg/mL. The MIC ([7]; isolate IHMA 1137292) was 1 µg/mL, the MIC ([7]; isolate IHMA 1145734) was 2 µg/mL and the MIC ([7]; isolate IHMA 1145735) was >16 µg/mL. The MIC ([7]; isolate IHMA 1165897) was >16 µg/mL, the MIC ([7]; isolate IHMA 1194748) was 0.5 µg/mL and the MIC ([7]; isolate IHMA 1194750) was 0.5 µg/mL. The MIC ([7]; isolate IHMA 1546199) was 2 µg/mL, the MIC ([7]; isolate IHMA 1546215) was 1 µg/mL and the “Cumulative % at MIC” value (S. pneumoniae (n = 12); MIC 0.5 µg/mL) was 25.0%. For the same compound, the “No. of isolates at MIC” value (S. pneumoniae (n = 12); MIC 0.5 µg/mL) was 2, the “Cumulative % at MIC” value (S. pneumoniae (n = 12); MIC 1 µg/mL) was 41.7% and the “No. of isolates at MIC” value (S. pneumoniae (n = 12); MIC 1 µg/mL) was 2. The “Cumulative % at MIC” value (S. pneumoniae (n = 12); MIC 2 µg/mL) was 83.3%, the “No. of isolates at MIC” value (S. pneumoniae (n = 12); MIC 2 µg/mL) was 5 and the “Cumulative % at MIC” value (S. pneumoniae (n = 12); MIC […] µg/mL) was 100.0%. For the same compound, the “No. of isolates at MIC” value (S. pneumoniae (n = 12); MIC […] µg/mL) was 2, the “Cumulative % at MIC” value (S. pneumoniae (n = 12); MIC ≤0.03 µg/mL) was 8.3% and the “No. of isolates at MIC” value (S. pneumoniae (n = 12); MIC ≤0.03 µg/mL) was 1. For the same compound, the MIC (S. pneumoniae (n = 12); S. pneumoniae IHMA N° 1775387) was 2 µg/mL, the MIC (S. pneumoniae (n = 12); S. pneumoniae IHMA N° 1776057) was 1 µg/mL and the MIC (S. pneumoniae (n = 12); S. pneumoniae IHMA N° 1785617) was 4 µg/mL. The MIC (S. pneumoniae (n = 12); S. pneumoniae IHMA N° 1800765) was 0.5 µg/mL, the MIC (S. pneumoniae (n = 12); S. pneumoniae IHMA N° 1811259) was 1 µg/mL and the MIC (S. pneumoniae (n = 12); S. pneumoniae IHMA N° 1831562) was ≤0,03 µg/mL. It also gave an MIC (S. pneumoniae (n = 12); S. pneumoniae IHMA N° 1902609) of 2 µg/mL, an MIC (S. pneumoniae (n = 12); S. pneumoniae IHMA N° 1979675) of 2 µg/mL and an MIC (S. pneumoniae (n = 12); S. pneumoniae IHMA N° 1991963) of 2 µg/mL. It also gave an MIC (S. pneumoniae (n = 12); S. pneumoniae IHMA N° 2057487) of 2 µg/mL, an MIC (S. pneumoniae (n = 12); S. pneumoniae IHMA N° 2073087) of 4 µg/mL and an MIC (S. pneumoniae (n = 12); S. pneumoniae IHMA N° 2117109) of 0.5 µg/mL. The “MIC, CLSI Range” value (S. pneumoniae ATCC 49619 [8]) was 0,25 - 1 µg/mL.
`CO[C@@H]1[C@@H](OC(N)=O)[C@@H](O)[C@H](Oc2ccc3c(O)c(NC(=O)c4ccc(O)c(CC=C(C)C)c4)c(=O)oc3c2C)OC1(C)C` [novobiocin] showed an MIC [9] of 0.0312 µg/mL, an MIC [10] of 0.125 µg/mL and an IC50 (A. baumannii DNA gyrase) of 2.17 ± 0.16 nM.

Reference: article PMC10041525, “New Dual Inhibitors of Bacterial Topoisomerases with Broad-Spectrum Antibacterial Activity and In Vivo Efficacy against Vancomycin-Intermediate Staphylococcus aureus” (Journal of Medicinal Chemistry, 2023)
